SMILES strings stand for the structures.

For one data set, the system named is SK-Mel-19. Briefly: Suppression of proliferation / senescence induction in melanoma line. It counts as cell-based. The settings on record: Homo sapiens, SK-MEL19. The source says: (§1) 260 analogs of N77A7 were selected from several commercially available libraries of small molecules based on the structural similarities with N77A7. The compounds were screened for the ability to permanently suppress proliferation and induce senescence in cells from melanoma lines SK-Mel-19 and SK-Mel-103. Based on the above-described screening procedure, seven small molecules were identified as having IC50 values lower than that of N77A7.

For a further data set, the system named is SK-Mel-103. The data set is described as above. The class given is cell-based. To be noted: Homo sapiens.
Source text: as §1

A further data set has as its system HO15.19-Vector cells. Briefly: Cell cycle distribution by FACS. The class given is cell-based, rat. To be noted: 3 μM.
The test system of a further data set is HO-N-myc cells. Description: Secondary filter for Myc specificity: cell growth inhibition, methylene blue staining. It counts as cell-based, rat. How it is done: (§2) FIG. 4 illustrates the myc specificity of tested compounds. Rat1a cells expressing c-myc, L-myc or N-myc or lacking any Myc (null) were treated for 72 h with a range of hit compound concentrations. The cells were then fixed and stained with methylene blue and the percentage of cells in the presence of compound compared to DMSO only control was calculated.
(§3) Validated hits were divided into classes when two or more compounds shared significant structural similarity. The ID50 for N-myc transactivation (the inhibitory dose resulting in 50% decrease in luciferase activity) for each hit was calculated from the dose-response N-myc responsive reporter assay. Compounds within each class were ranked by their ID50 for N-myc transactivation and the best compounds within each class were chosen for further studies. In addition, the best of the structurally unique compounds were also analyzed. A total of 46 hits were passed through a secondary filter designed to determine the specificity of the hits for Myc proteins. For this filter, we used a panel of cell lines derived from Rat1a cells (kindly provided by Michael Cole, Dartmouth University): HO-null-c-Myc deficient cells due to homologous recombination that express neither N-myc nor L-myc HO-c-Myc, HO-L-myc and HO-N-myc derived by retroviral transduction of the corresponding Myc genes into HO-null cells. Since each cell line expresses only a single Myc or no Myc family members, we could identify compounds that act through Myc family members as well as which Myc family members. […] The 18 Myc-specific compounds identified during the screening and filtering process are presented in Table 1 and represent distinct classes of molecules, including pyrazoles (e.g., N147A7, N47E10, N147G5), tetrazoles (e.g., N77A7) and 3-bromophenol (e.g., N4G6).

The next data set relates to HO-c-Myc cells. The description is as above. The class given is cell-based, rat. How it is done: as §2, §3
Another data set is described as follows: Solubility remark. The class given is physicochemical. The settings on record: prepared in methylcellulose.
The next data set deals with HO-null cells. Briefly: Secondary filter for Myc specificity: cell growth inhibition, methylene blue staining. It counts as cell-based. The settings on record: Rattus norvegicus, 72 h, read-out: ID50 HO-null. How it is done: as §2, §3
Data set [1] deals with SK-Mel-103 melanoma cells. How it is done:
One week following inoculation, treatment with 50 mg/kg N77A7 or Captisol vehicle control commenced. Treatment occurred daily by ip administration. Tumors were measured biweekly. Tumor volume was calculated using the formula tumor volume=L×W^2/2, where W=shortest dimension.
Our Myc inhibitors were tested for their effect against a panel of tumor cell lines, including neuroblastoma and melanoma that represent cell lines with aberrant N-myc and c-Myc expression, respectively. This panel of cell lines included the human neuroblastoma lines BE(2)C, IMR32 and NBL-WN (N-myc amplified), NBL-S (N-myc overexpression), SH-SY5Y (significant N- and c-Myc expression) and SH-EP (low levels c-Myc only) as well as two melanoma cell lines (#3 and #10-c-Myc overexpression) and normal melanocytes).

Data set [2] concerns C-MYC-activated global gene expression in SK-Mel-103 melanoma cells. Briefly: Global gene expression analysis, Affymetrix U133 Plus 2.0. The class given is cell-based, human. To be noted: 4 μM, 48 hours. How it is done: FIG. 13 illustrates a comparison of changes in global gene expression caused by depletion of C-MYC via shRNA or by treatment with N77A7.
SK-Mel-103 melanoma cells were infected with control- or MYC shRNA-expressing lentiviruses or treated with DMSO or 4 μM of N77A7. In 48 hours after lentiviral infection or incubation with the chemicals, cells were collected, RNA was isolated and subjected to global expression analysis using Affymetrix GeneChip® Human Genome U133 Plus 2.0 Platform. A linear model specifically designed for microarray analysis was applied to the data. Differentially expressed probe sets were detected using a nested F-test approach. An adjusted p-value of 0.005 was used to assess significance, adjusting for multiple comparisons using false discovery rate. The obtained results are schematically represented in FIG. 13. It was determined that incubation with N77A7 negatively affected expression of 820 genes by ≧2 fold (591+229, FIG. 13). […] Therefore it is logical to expect that the number of genes whose expression is suppressed both by MYC-shRNA and N77A7 should be higher than the number of genes whose expression is induced by both treatments.

Another data set has as its system melanoma cells (Mel-9). Description: Stable-isotope tracing, 13C labeling of central metabolites. The settings on record: 13C-glucose, 24 h, compared to control. It counts as cell-based.
The test system of data set [3] is Myc+ fibroblasts (HO15.19 Myc-null cells with C-MYC re-expression). Briefly: Stable-isotope tracing, 13C labeling and uptake/secretion of metabolites. It counts as cell-based, rat. The settings on record: 13C-glucose, 24 hrs, Myc+ cells treated. How it is done:
Experiments were perform and data were analyzed as described in FIG. 14. Cellular measurements are mean±SD of 3 samples.

A further data set deals with SK-Mel-103 xenografts. Briefly: Preliminary in vivo testing CBL2.5-01-Ms-1, N77A7 in methylcellulose. To be noted: after a week of ip injection, prepared in methylcellulose. Further details: species or system athymic nude mice. The source says: N77A7 was identified in a small molecule library screen for inhibitors of the N-myc oncoprotein, which is involved in the pathogenesis of the childhood tumor neuroblastoma. The molecule is also effective against c-myc, a family member of N-myc that is overexpressed or amplified in a wide variety of tumors, including melanoma. In vitro, the effects of N77A7 on melanoma cells (e.g., SK-Mel-103) closely reflect the effects of myc shRNA on the same cells. In order to determine whether this in vitro effect can translate into an in vivo anti-tumor effect, we tested 50 mg/kg N77A7 administered daily ip against SK-Mel-103 xenografts established in athymic nude mice. […]

Description for melanoma cells (Mel-9): Cells were grown in 6-well plates, and the medium was replaced for the final 24 h of culture with the MEM medium described previously (Scott et al., JBC 286, 42626-34, 2011), containing 50% ^13C-labeled [U-^13C6] glucose or 50% ^13C-labeled [U-^13C5] glutamine] […] Metabolites were extracted and GC-MS analysis and calculation of ^13C labeling were performed as described (Scott et al., 2011). Metabolites were quantified on the basis of fragment ion intensities and standard curves derived from mixtures of standards run concurrently with samples, using the program Metaquant (B. Bunk et al., Bioinformatics 22, 2962-2965, 2006). On the graphs, the 13C labeling percentage is shown as average of to separate experiments (with error bars). Samples from cells treated by antimycon (“N77”), anti-MYC shRNA (“Myc”), nonspecific shRNA (“NS”) and the control treated only by DMSO are shown bars with distinct patterns.

For `CCN(CC)c1ccc(/C=N/NC(=O)Cn2nnc(-c3ccccc3)n2)c(O)c1` [Compound N77A7], the IC50 was found to be 3000 nM in the data set on SK-Mel-19; 3000 nM with SK-Mel-103; 770 nM in the data set with HO-N-myc cells (Rattus norvegicus, cell growth inhibition, 72 h, methylene blue, read-out: ID50 HO—N-myc); 4700 nM in the data set on HO-c-Myc cells (Rattus norvegicus, cell growth inhibition, 72 h, methylene blue, read-out: ID50 HO-c-myc); 3640 nM with HO-null cells. Besides, the “HO15.19-Vector G2” value with HO15.19-Vector cells (percent of cells in G2 phase) is listed as 23.88%. Moreover, in the data set with HO15.19-Vector cells (percent of cells in S phase), the “HO15.19-Vector S” value is recorded as 21.22%. In the data set with HO-N-myc cells (ID50 in HO-null cells divided by ID50 in HO—N-myc cells), the “Myc Index N” value stood at 4.5. Besides, the “Myc Index C” value with HO-c-Myc cells (ID50 in HO-null cells divided by ID50 in HO-c-myc cells) is 0.8. Also, in “Solubility remark”, the solubility entry is recorded as “poorly soluble”. For the same compound, the observable toxicity result in [1] (mouse, in vivo) is reported as “absence of any observable toxicity”. Also, the tumor growth entry in data set [1] (preliminary, ½ maximum tolerated dose, melanoma xenograft, FIG. 7) was “reduced tumor growth compared to the vehicle control”. Moreover, the “number of genes whose expression was negatively affected by ≧2 fold” value in data set [2] amounted to 820 genes. In addition, in data set [2], the “number of these genes also suppressed ≧2 fold by MYC shRNA” value is 591 genes. The “share of genes induced ≧2 fold also upregulated ≧2 fold by MYC shRNA” value in data set [2] is given as 47.1%. Moreover, in [2], the “share of suppressed genes also suppressed ≧2 fold by MYC shRNA” value came out at 72.1%. Also, in the data set with melanoma cells (Mel-9), the “labeling via glucose of serine, glycine, pyruvate, lactate, TCA-cycle metabolites” value is recorded as “lower”. Besides, the metabolic phenotype entry in [3] is on record as “metabolic phenotype similar to Myc-null cells”. Also, the peritonitis result in the data set on SK-Mel-103 xenografts is reported as “severe peritonitis”.

The values are drawn from patent US9387213B2, “Small molecules inhibiting oncoprotein Myc” (Health Research, Inc., priority 2012, dated 2016).
